From patent publication US20170273906A1, “TARGETED LIPOSOMES ENCAPSULATING IRON COMPLEXES AND THEIR USES” (Ramot at Tel-Aviv University Ltd., priority 2014, published 2017)

Key:
[1] = tested on: NAR xenografts; experiment: Mouse tumor model, tumor volume; type: in vivo; settings: tail vein, 3 injections a week apart; 2 mpk hemin and/or 125 mpk lipid; follow up two weeks after last injection; FIG. 17B
Description: The experimental details and design were as follows: Hsd:Athymic Nude Foxn1nu female mice (8 weeks old, 25 gr.) were inoculated with NAR cells (6.5*10^6 cells/100 μl HBSS), to the flank. Treatment was initiated at tumor volumes of 150-180 mm^3. There were three treatment groups and in all three the solvent was HBSS: (1) mice injected with drug-free HA-L^hi at the dose of 125 mpk lipid. (2) mice injected with free hemin at the dose of 2 mpk and (3) mice injected with hemin/HA-L^hi at the respective doses of 2 mpk (hemin) and 125 mpk (lipid). The injections were to the tail vein, and the injection volume was 200 μl. Each mice was given 3 injections spaced a week apart. Follow up was by animal weight and tumor volume (measured by caliper), up to two weeks after the last injection.

[2] = tested on: MDA-MB-231; experiment: Cell viability (XTT and SRB), MDA-MB-231; type: cell-based, human; settings: 24 hours
Description: (§1) For evaluating the effect of Hemin/HA-L on cancer cells, the liposomes prepared as described above were used. The only difference was in the amount of dry liposome forming lipid powder used in the “cancer aspect”. Specifically, in the following anti-cancer aspect, for rehydration of the hemin, higher amounts of the powder were used to reach a liposome concentration of 10-20 mM lipid.
(§2) The impact of hemin/HA-L at high liposome concentrations on cell viability was tested on five cell lines and compared to the same dose of free hemin, as well as to the same liposomal dose of drug-free HA-L.
(§3) Three of the cell lines originated from human cancers: MDA-MB-231 and MCF-7 from breast cancer and NCI/ADR-Res (abbreviated to NAR) from ovarian cancer. The RAW264.7 cell line is from mouse peritoneal macrophages, and the COS-7 cell line is noncancerous. […] MCF-7 is known to be sensitive to chemotherapeutic drugs, whereas NAR is known to be highly resistant to chemotherapeutic drugs, in the multi-drug resistant mechanism operating by the extrusion pumps of the ABC superfamily of transporters.
(§4) The Results of treating the five cell lines with hemin/HA-L, hemin, drug-free HA-L or control (i.e. untreated) for 24 hours, are shown in Tables 2 and 3, for hemin doses (free or liposomal) of 25 μg/ml and 50 μg/ml, respectively. Cell viability was evaluated by two independent methods: XTT and SRB.

[3] = tested on: LPS-activated RAW264.7 cells; experiment: In vitro viability assay (XTT/SRB), LPS-activated macrophages; type: cell-based, mouse; settings: hemin dose of 50 μg/ml and liposome dose of 4 mM lipid, 24 hours, XTT; FIG. 7
Description: I. RAW264.7 cells were seeded onto 96 well plates, and the experiments were initiated 24 hours later, at semi-confluency. The regular (serum supplemented) cell growth media was replaced by the same media but containing one of the following treatments: free hemin, drug-free RL-MLV, HA-MLV, hemin-encapsulating RL-MLV and hemin-encapsulating HA-MLV. Wells receiving the regular cell growth media without any addition served as controls. Incubation time was 24 hours, at the end of which the experiment was terminated and cell viability was determined by the XTT or SRB methods. Both methods yielded similar results.
Cell viability was determined using XTT method. […] In addition, cell viability was also determined by the SRB method, which is independent of mitochondrial enzymes (results not shown). Both methods gave similar results.

[4] = tested on: COS-7; experiment: Cell viability (XTT and SRB), COS-7; type: cell-based; settings: 24 hours
Description: as §1, §2, §3, §4

[5] = tested on: Mouse Model of Myocardial Infarction (MI); experiment: Histological analysis of infarct size (hematoxylin and eosin), 30 days after MI; type: in vivo; settings: FIG. 13E
Description: (§5) Twelve week-old female Balb/C mice (20 gr.) were anesthetized with 2% isoflurane, and were surgically opened by left thoractomy through the fourth intercostal space to expose the beating heart. To induce MI, the left main coronary artery was permanently occluded with an intramural suture.
The imaging results of treatment with Hemin/HA-L (FIG. 13A), free hemin (FIG. 13B), empty liposomes (FIG. 13C) and saline (FIG. 13D) were confirmed by histological analysis, 30 days after MI. […] Noticeably, empty liposomes and free hemin treatments were also associated with a decreased scar tissue (by 40% and 43%), compared with saline (FIG. 13E). Overall, the presented findings indicate that hemin/HA-L is a promising agent to modulate and resolve inflammation following MI by enhancing healing and repair processes.

[6] = tested on: NCI/ADR-Res; experiment: Cell viability (XTT and SRB), NCI/ADR-Res; type: cell-based, human; settings: 24 hours
Description: as §1, §2, §3, §4
To this end, NCI/ADR-Res (NAR) cells were first tested with drug-free regular liposomes and drug-free HA-L, at three liposome doses—4 mM, 10 mM, and 21 mM—lipid, with untreated cells serving as controls. The experiments were performed in 24-well plates, treatment was for 24 hours, and upon termination the active intracellular HO-1 was determined using a commercial kit and following the kit's instructions. Parallel wells were used to evaluate cell viability using the SRB method. The results are presented in FIG. 14 (average of 6 wells; Statistical significance was evaluated by student t test (two tail, unequal variance) for RL vs. control and for HA-L vs. control. *p<0.05, **p<0.003, ***p<0.0001).

[7] = tested on: HO-1; experiment: HO-1 expression in LPS-activated macrophages; type: cell-based, mouse; settings: LPS 24 hours, then three days in culture; FIG. 1E
Description: III. Further, the effect of hemin/HA-LP on TNF-α secretion levels from LPS stimulated RAW264.7 macrophages, on IL-12 cytokine secretion from peritoneal macrophages stimulated with LPS for 24 hours, and expression of HO-1 expression were measured. In addition, the effect of hemin/HA-L on macrophage inflammatory and anti-inflammatory properties was evaluated. First, TNF-α secretion levels from LPS stimulated RAW264.7 macrophages was measured (FIG. 1C, “LP” denoting liposome). […] Next, mouse peritoneal macrophages were stimulated with LPS for 24 hours. After LPS removal, the cells were treated with either hemin/HA-LP, empty HA-LP, free hemin or saline.

[8] = tested on: HO-1; experiment: Intracellular concentration of active HO-1 in NAR cells (commercial kit); type: cell-based, human; settings: hemin 25 μg/ml (free, or encapsulated in 2 mM lipid), 24 hours; FIG. 15
Description: The experiments were performed in 24-well plates, treatment was for 24 hours, and upon termination the active intracellular HO-1 was determined using a commercial kit and following the kit's instructions. Parallel wells were used to evaluate cell viability using the SRB method. The results are presented in FIG. 14 (average of 6 wells; Statistical significance was evaluated by student t test (two tail, unequal variance) for RL vs. control and for HA-L vs. control. *p<0.05, **p<0.003, ***p<0.0001).
In both cases, as also shown in FIG. 15, cell viability (line crossing open circles) was intact.

[9] = tested on: RAW264.7; experiment: Cell viability (XTT and SRB), RAW264.7; type: cell-based, mouse; settings: hemin 50 μg/ml, 24 hours
Description: as §1, §2, §3, §4

[10] = tested on: LPS stimulated RAW264.7 macrophages; experiment: TNF-α secretion from LPS stimulated macrophages; type: cell-based, mouse; settings: hemin dose of 50 μg/ml, FIG. 1C
Description: III. Further, the effect of hemin/HA-LP on TNF-α secretion levels from LPS stimulated RAW264.7 macrophages, on IL-12 cytokine secretion from peritoneal macrophages stimulated with LPS for 24 hours, and expression of HO-1 expression were measured. In addition, the effect of hemin/HA-L on macrophage inflammatory and anti-inflammatory properties was evaluated. First, TNF-α secretion levels from LPS stimulated RAW264.7 macrophages was measured (FIG. 1C, “LP” denoting liposome). […] Next, mouse peritoneal macrophages were stimulated with LPS for 24 hours. After LPS removal, the cells were treated with either hemin/HA-LP, empty HA-LP, free hemin or saline. […] The anti-inflammatory activity of hemin was evaluated in vitro, in the established cell line of mouse peritoneal macrophages RAW264.7. Anti-inflammatory treatment was measured by reduction in secretion of the pro-inflammatory cytokine TNF-α, in LPS-activated macrophages.

[11] = tested on: peritoneal macrophages; experiment: Peritoneal macrophage profile following injection after MI (FACS); type: in vivo, mouse; settings: IP one day after MI, three days later
Description: as §5
To determine liposomal hemin effect on peritoneal and cardiac macrophages, hemin was formulated in HA-L. Hemin encapsulation efficiency was ˜100% at therapeutic dose levels. Mice were allocated with hemin/HA-L (2 mg hemin/kg body and 50 mg lipid/kg body), empty liposomes (HA-targeted, 50 mg lipid/kg body), free hemin (2 mg/kg body) or saline (100 μl) by intra-peritoneal injection one day after MI. Three days later, mice were euthanized and peritoneal macrophages were aspirated from abdominal cavity. Cells were counted and stained with an anti-mouse F4/80 (as general macrophage marker) and with either PE-conjugated anti-mouse CD86 (as M1 marker) or FITC-conjugated anti-mouse mannose receptor (CD206; as M2 marker). Cells were analyzed by FACS Calibur cytometer using CellQuest™ software.
Following hemin/HA-L (2 mg hemin/kg body and 50 mg lipid/kg body) injection into mice peritoneum (IP), macrophages from the abdominal cavity were isolated and analyzed by flow cytometry.

[12] = tested on: MCF-7; experiment: Cell viability (XTT and SRB), MCF-7; type: cell-based, human; settings: 24 hours
Description: as §1, §2, §3, §4

In the case of hemin [Free hemin], the tumor volume [1] is reported as “slight decrease”, the “Cell Viability” value ([2]; hemin 25 μg/ml) is reported as 92(±13) % and the “Cell Viability” value ([2]; hemin 50 μg/ml) is reported as 91(±8) %. For the same substance, the Cell Viability [3] was “did not significantly affected cell viability”, the “Cell Viability” value ([4]; hemin 25 μg/ml) was 99(±3) % and the “Cell Viability” value ([4]; hemin 50 μg/ml) was 91(±3) %. The “reduction of infarct size (scar tissue) compared with saline” value [5] was 43%, the “cell viability (SRB)” value ([6]; free hemin 25 μg/ml or drug-free HA-L 2 mM lipid, FIG. 15) was “intact” and the “Cell Viability” value ([6]; hemin 25 μg/ml) was 120(±7) %. For the same substance, the “Cell Viability” value ([6]; hemin 50 μg/ml) was 110(±6) %, the “HO-1 expression within macrophages” value [7] was “highest HO-1 expression” and the “intracellular levels of active HO-1” value [8] was “small, but significant increase”. The “Cell Viability” value [9] was 119(±17) %, the TNF-α secretion [10] was “no effect” and the TNF-α secretion ([10]; listed as free hemin) was “high levels of TNF-α”. For the same substance, the “M2 (anti-inflammatory) peritoneal macrophages” value ([11]; 2 mg hemin/kg body and/or 50 mg lipid/kg body, FIG. 8C) was 6.4±1.5%, the “M2/M1, peritoneal macrophages” value ([11]; FIG. 8D) was 0.08±0.03 and the “Cell Viability” value ([12]; hemin 25 μg/ml) was 104(±4) %. The “Cell Viability” value ([12]; hemin 50 μg/ml) was 108(±5) %.
